Entries after “also recorded” stand apart in the source; their conditions may differ.
Assays:
[1] = tested on: rat urinary bladder detrusor muscle strips; assay: Field stimulation contractions of isolated smooth muscle (organ bath tension recording)
Protocol: (§1) Smooth muscle preparations were obtained from male Wistar strain albino rats. The animals were killed by a blow to the head and smooth muscle strips (about 2 mm x 10 mm) were dissected from the bladder. The vasa deferentia were divided into two portions and longitudinally bisected. Tests on cardiac muscle were carried out using isolated cannulated flounder heart. All mammalian preparations were maintained in Krebs solution containing NaCl : 120.7 mM; NaH₂PO₄ : 1.3 mM; KCl : 5.9 mM; NaHCO₃ : 15.5 mM and CaCl₂ : 2.5mM; glucose : 11.5 mM. MgCl₂ : 1.2mM The Krebs solution was adjusted to pH 7.3 with HCl and was continuously aerated and maintained at 37°C.
(§2) To record tension the muscle preparations were mounted vertically in jacketed organ baths which were continuously aerated and whose contents could be rapidly changed. The preparations were attached to a set of Grass Instruments ST 0.3C force displacement transducers held in adjustable rackwork, and the racks were adjusted to put slight tension on the preparations. After mounting in the perfusion baths the preparations were allowed to equilibrate for 1 hour, the bath saline being changed every 15 min. The force displacement transducer outputs were connected to a four-channel Grass model 79 polygraph. The stimulation electrode terminals were attached to Grass SIU 5 isolation units connected to two Grass S48 stimulators driven in tandem. Stimulation train parameters varied in different preparations but a common regime consisted of a 200 msec train of pulses at 50 Hz, each pulse being 2-5 msec at 40-50 V. Trains were automatically repeated usually at 100 or 50 sec intervals. The techniques have been described in detail by Huddart and Butler (1986) in Gen. Pharmac., 17, 695-703 (1986).
(§3) The smooth muscle preparations were threaded through two silver/silver chloride ring electrodes (4 mm inside diameter), mounted 10 mm apart on a perspex rod. The bottom ligature was passed through a fine hole in a nylon screw at the base of the rod. By turning the screw the muscle strip could be drawn exactly through the electrode rings. The electrode assemblies were then placed in the jacketed organ baths as described above and the upper muscle ligatures attached to the transducer to measure tension. Both the vas deferens and the bladder smooth muscles responded to the field stimulation with consistent repeatable contractions. It is believed that these contractions are calcium-dependent via the operation of slow calcium channels. The effect of ABA on these contractions was tested by adding a concentrated solution thereof to the perfusion solution to give an overall ABA concentration of 10⁻⁶M. In the two vas deferens studies the slow calcium channel blocker nifedipine was then added in the same manner to produce a concentration of 10⁻⁷M. […]

[2] = tested on: rat vas deferens smooth muscle; assay: as above
Protocol: as §1, §2, §3

flounder heart = assay: Contractile force of isolated cannulated heart
Protocol: as §1
The flounder heart was maintained at 10°C in flounder saline containing NaCl : 116.7 mM, CaCl₂ : 1.72 mM, Na₂SO₄ : 18.6 mM, TES : 2.5 mM and KCl : 2.71 mM, glucose : 5.0 mM MgSO₄ : 0.67 mM, at pH 7.65.
as §2
The contractile force in flounder heart was measured before and after addition of ABA to the perfusion solution.

[3] = tested on: rat urinary bladder detrusor muscle strips; assay: High-K (60 mM K+) contracture response of K+-depolarized muscle
Protocol: as §1, §2
(A) Rat urinary bladder detrusor muscle strips were tested in a high-K saline prepared by substitution of sodium compounds in the Krebs' solution by equimolar amounts of potassium compounds to give a K+ concentration of 60 mM. At this level of depolarization it is believed that the fast calcium channels are voltage-inactivated. […]

[4] = tested on: rat vas deferens smooth muscle (partly depolarized); assay: K+-induced (20 mM K) contracture tension, dose-response comparison; conditions: for activity in enhancing K+-induced contracture tension: parallel trials of ABA and BAY K 8644, result in words
Protocol: as §1, with “All mammalian preparations were maintained in Krebs solution containing NaCl : 120.7 mM; NaH₂PO₄ : 1.3 mM; KCl : 5.9 mM; NaHCO₃ : 15.5 mM and CaCl₂ : 2.5mM; glucose : 11.5 mM.” left out
as §2, with “intervals.” for “intervals. The techniques have been described in detail by Huddart and Butler (1986) in Gen. Pharmac., 17, 695-703 (1986).”

[5] = Field stimulation response (more recent findings, tissue not stated); conditions: no tissue or concentration printed
[6] = tested on: microsomal calcium efflux; assay: Potassium-stimulated microsomal calcium efflux; format: biochemical
[7] = Rattus norvegicus, read-out: enhanced field stimulation responses

SMILES | inhibition of the ABA augmentation of the field stimulation response (and of the response itself) ([1]; nifedipine after ABA 10⁻⁶M, bladder) | inhibition of the ABA augmentation of the field stimulation response (and of the response itself) ([2]; nifedipine 10⁻⁷M added after ABA 10⁻⁶M, vas deferens) | inhibition of the ABA action on contractile force (flounder heart; nifedipine after ABA 10⁻⁶M) | activation at 1 µM [1, 7] | activation at 1 µM [2, 7] | contractile force (flounder heart; ABA 10⁻⁶M in perfusion solution, 10°C) | cardiac arrhythmia (flounder heart; prolonged ABA exposure (15 minutes)) | tonic phase of the response ([3]; ABA 10⁻⁶ M in high-K saline, added just after the initial phasic response) | contracture tension ([3]; ABA 10⁻⁶M, K+-depolarized muscle, result in words) | activation at 1 µM ([3]; Rattus norvegicus, 0.25 h, ABA 10⁻⁶ M added 15 minutes before the high-K solution (K+ 60 mM), read-out: enhancement of contracture tension) | activity in enhancing K+-induced contracture tension [4] | EC (100% enhancement) ([4]; rat vas deferens, partly depolarized, read-out: threshold for 100% enhancement of K contracture tension) | field stimulation response [5] | potassium-stimulated microsomal calcium efflux [6] | threshold / potency relative to ABA ([4]; rat vas deferens)
COC(=O)C1=C(C)NC(C)=C(C(=O)OC)C1c1ccccc1[N+](=O)[O-] [nifedipine, reference compound] | inhibited | inhibited | inhibited | – | – | – | – | – | – | – | – | – | – | – | –
CC1=CC(=O)CC(C)(C)C1(O)/C=C/C(C)=C\C(=O)O (racemic) [ABA, (1ʹS,2Z,4E)-5-(1ʹ-hydroxy-2ʹ,6ʹ,6ʹ-trimethyl-4ʹ-oxocyclohex-2ʹ-enyl)-3-methyl-penta-2,4-dienoic acid] | – | – | – | ~25% | ~25% | augment | pronounced cardiac arrhythmia | enhanced; also recorded: considerable enhancement | considerably augmented | 50% | identical activity | ~0.005 µM | enhances | enhances | –
COC(=O)C1=C(C)NC(C)=C([N+](=O)[O-])C1c1ccccc1C(F)(F)F (stereo not shown) [BAY K 8644, methyl 1,4-dihydro-2,6-dimethyl-5-nitro-4-[2-(trifluoromethyl)-phenyl]-3-pyridinecarboxylate, reference compound] | – | – | – | – | – | – | – | – | – | – | identical activity | – | – | – | roughly one order of magnitude greater than ABA

From patent EP0240257A2, “Compounds and pharmaceutical preparations having calcium - regulatory activity” (University of Lancaster, priority 1986, dated 1987)
